One assay has as its system sAPP beta. Put plainly: Secondary screen: sAPP beta. It counts as cell-based. The settings on record: decrease (↓).
Another assay has as its system Aβ1-42. As to the kind of experiment: Aβ1-42 ELISA in SH-SY5Y neuroblastoma cells. Type of assay: cell-based, human. The note with it: for IC50: Homo sapiens, SH-SY5Y, secondary screen. The procedure:
SH-SY5Y neuroblastoma cells were seeded at 50,000 cells/well in a 96 wells plate for 24 h. Then their medium was changed for fresh medium supplemented with desired concentration of the hydantoin compound (e.g. compound 3). After 24 h, 20 al of the medium was added to 2 al of the complete protease inhibitor with 1 μM EDTA and kept at 4° C. until analysis using the ELISA assay below.
ELISA kits from Invitrogen were also used to quantify Aβ1-42 (KHB3544) in duplicate. For the Aβ 1-42 ultrasensitive ELISA, samples were diluted 1:2 (50 al CSF plus 50 μl kit-provided standard diluent buffer). Assays were performed according to manufacturer's instructions. In short, standards and samples were added to a plate pre-coated with a monoclonal capture antibody specific for the amino terminus of Hu Aβ. The samples were co-incubated with a rabbit detection antibody (Ab) specific for the carboxy terminus of the Aβ species being assayed for 3 hr at room temperature overnight at 4° (Aβ 1-42) with gentle rocking. After washing, bound rabbit Ab was detected using a horseradish peroxidase-labeled anti-rabbit secondary Ab. After washing again, bound HRP-anti rabbit Ab was detected colorimetrically (Spectramax 190, Molecular Devices) by the addition of a substrate solution. 1 mM 4-(2-Aminoethyl) benzenesulfonyl fluoride hydrochloride (AEBSF) protease inhibitor (101500, Calbiochem) was added to standards and samples.
For orientation: In an ELISA, binding on a coated surface is turned into a signal by an enzyme label.

The target in a further assay is PSGL-1-BACE1 (Homo sapiens (Human), UniProt P56817). Put plainly: PSGL1-BACE cleavage in transfected HEK 293 cells (SEAP/lacZ). It counts as cell-based. The note with it: APP-BACE vs PSGL1-BACE cleavage. The procedure: (§1) Briefly, in order to determine the PSGL-1-BACE1 IC50 IC50 HEK 293 cells were plated in 24 well plates and transiently cotransfected with either PSGL1/lacZ or NRG1/lacZ constructs using Lipofectamine 2000; manufacturer protocol was followed. Two hours after adding the DNA-lipid complex to the cells a BACE inhibitor was added to each well, then cells were incubated overnight at 37° C. and 5% CO2. Cultured medium was collected to determine NRG1 or PSGL1, and cells were lysed to measure lacZ levels. Sigma SEAP kit standard protocol was conducted on the cultured medium to detect levels of PSGL1 or NRG1. Promega kit instructions were followed to determine lacZ concentration. The ratio of PSGL1/lacz vs [BACE inhibitor] or were plotted to determine the BACE1-IC50 on each of the substrate using GraphPad Prism 5 (FIG. 6B).
Chain of PSGL-1-BACE1 (P56817 46-501): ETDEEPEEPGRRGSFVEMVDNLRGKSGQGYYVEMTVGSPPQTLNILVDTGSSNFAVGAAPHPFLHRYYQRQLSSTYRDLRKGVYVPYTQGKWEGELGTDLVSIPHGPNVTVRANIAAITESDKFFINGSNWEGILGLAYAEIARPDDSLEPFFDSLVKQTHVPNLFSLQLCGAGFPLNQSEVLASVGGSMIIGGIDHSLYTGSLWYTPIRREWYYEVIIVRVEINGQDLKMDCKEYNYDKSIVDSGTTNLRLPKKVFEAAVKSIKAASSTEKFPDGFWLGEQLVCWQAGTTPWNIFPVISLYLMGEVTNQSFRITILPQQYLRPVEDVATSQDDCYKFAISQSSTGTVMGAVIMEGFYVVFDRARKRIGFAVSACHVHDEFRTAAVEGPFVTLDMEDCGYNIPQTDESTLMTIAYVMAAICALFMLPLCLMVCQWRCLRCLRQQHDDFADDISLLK

The target in a further assay is NRG1-BACE1 (Homo sapiens (Human), UniProt P56817). As to the kind of experiment: NRG1-BACE cleavage in transfected HEK 293 cells (SEAP/lacZ). It counts as cell-based. The procedure:
as §1

Another assay concerns sAPP alpha. As to the kind of experiment: Secondary screen: sAPP alpha. The note with it: for sAPP alpha: increase (↑); for sAPP (α/β): increase (↑) of ratio. It counts as cell-based.
The next assay addresses TRX-eAPP575-624 (Homo sapiens (Human), UniProt P05067). As to the kind of experiment: SPR (Biacore) binding to APP ectodomain fragment. The procedure: The binding affinity of the compounds for the ectodomain of APP was determined using SPR. […] The eAPP was crosslinked linked to the CM5 Biacore chips (GE Healthcare).
FC1 served as a reference cell following a mock immobilization with buffer alone. For all cells, the flow rate was 10 al per min. The chip was blocked with 1M ethanolamine (pH 8.5). […] Binding traces were recorded for each dilution with a binding phase of 60 seconds and a dissociation phase of 240 seconds. Each cycle was performed at 20° C. with a constant flow rate of 20 l/min. An additional 240 seconds of buffer flow at 60 al per min across the cells was applied as a regeneration phase to facilitate complete dissociation of the compound from the protein. The sensograms were obtained by subtraction of the reference and buffer signals using the Biacore T100 Evaluation software. The binding curves were modeled with the PRISM (Graphpad Inc).

For another assay, the system named is Aβ42. Put plainly: Aβ lowering in NTg mice. It counts as in vivo. The settings on record: 1 mpk. The procedure: Compound 2 and other hydantoins were produced (see, e.g., compounds 1-5 pharmacokinetic evaluation of these hydantoins was determined in brain uptake assays using NTg mice (see, e.g., Table 1). It was also determined that Compound 1 lowered Aβ42 in the same animals at 5 mpk, while compound 3 lowered Aβ at 1 mpk.

Each structure is given as a SMILES string. Read-outs that look alike come from different tables or passages of the source.

This is an account of results in patent publication US11091444B2, “Hydantoins that modulate BACE-mediated app processing” (BUCK INSTITUTE FOR RESEARCH ON AGING, priority 2013, dated 2021).

Chain of NRG1-BACE1 (P56817 46-501): as above
Chain of TRX-eAPP575-624 (P05067 650-699): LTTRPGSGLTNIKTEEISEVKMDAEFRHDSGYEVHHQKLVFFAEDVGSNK

By IC50 is commonly meant the concentration at which inhibition is half-maximal. `Cc1cc(C2(c3cccc(F)c3)N=C(N)N(C)C2=O)ccc1OC(F)F` (stereo not drawn) [FAH-17, 2-amino-4-(4-(difluoromethoxy)-3-methylphenyl)-4-(3-fluorophenyl)-1-methyl-1H-imidazol-5(4H)-one]: the sAPP beta result in the assay with sAPP beta was “↓ < 50%”. The IC50 in the assay with Aβ1-42 was more than 1 µM; at NRG1-BACE1 (secondary screen, read-out: NRG1-BACD1 IC50), more than 1 µM. The “Selectivity for APP over PSGL1” value on PSGL-1-BACE1 is given as more than 200 fold. The “Selectivity for APP over NRG1” value at NRG1-BACE1 (APP-BACE vs NRG1-BACE cleavage) was more than 10 fold. Besides, the sAPP alpha entry with sAPP alpha is reported as “↑ > 20%”. For the same molecule, in the assay with sAPP alpha, the “sAPP (α/β)” value is given as “↑ > 100%”.
The molecule `CN1C(=O)C(c2ccccc2)(c2cc(F)cc(F)c2)N=C1N` (stereo not drawn) [FAH-1] showed a Kd on TRX-eAPP575-624 of 5 µM.
Take `Cc1cc(C2(c3cccc(Cl)c3)N=C(N)N(C)C2=O)ccc1OC(F)F` (stereo not drawn) [FAH-23, 2-amino-4-(3-chlorophenyl)-4-(4-(difluoromethoxy)-3-methylphenyl)-1-methyl-1H-imidazol-5(4H)-one]: the sAPP beta entry in the assay with sAPP beta is recorded as “↓ < 20%”. In the assay with sAPP alpha, the sAPP alpha result is given as “↑ > 20%” and the “sAPP (α/β)” value is listed as “↑ > 50%”.
In the case of `Cc1cc(C2(c3cccc(C(F)(F)F)c3)N=C(N)N(C)C2=O)ccc1OC(F)F` (stereo not drawn) [FAH-28], the sAPP beta result with sAPP beta is “↓ < 20%”. In the assay with sAPP alpha, the sAPP alpha result is reported as “↑ > 20%” and the “sAPP (α/β)” value is on record as “↑ > 50%”.
For `Cc1cccc(C2(c3ccc(OC(F)F)c(C)c3)N=C(N)N(C)C2=O)c1` (stereo not drawn) [FAH-27, 2-amino-4-(4-(difluoromethoxy)-3-methylphenyl)-1-methyl-4-(m-tolyl)-1H-imidazol-5(4H)-one], in that order: “↓ < 30%”, “↑ > 30%” and “↑ > 100%”.
With `Cc1cc(F)cc(C2(c3ccc(OC(F)F)c(C)c3)N=C(N)N(C)C2=O)c1` (stereo not drawn) [FAH-22, 2-amino-4-(4-(difluoromethoxy)-3-methylphenyl)-4-(3-fluoro-5-methylphenyl)-1-methyl-1H-imidazol-5(4H)-one], the sAPP beta entry in the assay with sAPP beta is reported as “↓ < 20%”. Besides, in the assay on sAPP alpha, the sAPP alpha result is “↑ > 10%” and the “sAPP (α/β)” value was “↑≈50%”.
For `Cc1cc(C2(c3cc(F)cc(F)c3)N=C(N)N(C)C2=O)ccc1OC(F)F` (stereo not drawn) [FAH-3, 2-amino-4-(4-(difluoromethoxy)-3-methylphenyl)-4-(3,5-difluorophenyl)-1-methyl-1H-imidazol-5(4H)-one], in the assay with sAPP beta, the sAPP beta result was “↓ < 20%”. The molecule further returned an IC50 in the assay on Aβ1-42 of more than 1 µM. The “Inhibition of Aβ / Aβ42 production” value in the assay on Aβ1-42 (SH-SY5Y cells) was “inhibition of Aβ production”. Also, the “Aβ lowering in vivo” value with Aβ42 is reported as “lowered Aβ”. Also, in the assay with sAPP alpha, the sAPP alpha result is recorded as “↑ > 10%” and the “sAPP (α/β)” value is recorded as “↑≈10%”. At TRX-eAPP575-624 (Table 1, SPR, read-out: APP binding Kd), the Kd worked out at 0.3 µM.
